System: TGF-β activation
Experiment: Inventors' additional tests of TGF-β activation with synthetic KRFK and LSKL peptides
Description: Moreover, the group of Murphy-Ullrich at the University of Alabama, U.S.A. investigated the adherent-type TGF-β activation reaction by a glycoprotein, thrombospondin 1, and reported that TGF-β is activated by binding of KRFK sequence corresponding to amino acid numbers 412-415 of thrombospondin 1 to LSKL sequence corresponding to amino acid numbers 54-57 of LAP, and that the synthetic KRFK peptide activates TGF-β, whereas the synthetic LSKL peptide inhibits the TGF-β activation reaction (Schultz-Cherry et al., J. Biol. Chem. 270: 7304-7310, 1995; Crawford et al., Cell 93: 1159-1170, 1998; Ribeiro et al., J. Biol. Chem. 274: 13586-13593, 1999; Murphy-Ullrich and Poczatek Cytokine & Growth Factor Reviews 11: 59-69, 2000). The LSKL sequence derived from amino acid numbers 54-57 of the aforementioned LAP overlaps with the plasmin cleavage site K56-L57 identified by the present inventors. By binding to and cutting this portion, respectively, thrombospondin 1 and proteases may inhibit a noncovalent bond between this portion and active TGF-β molecule, resulting in release of the active TGF-β molecule from a latent complex (namely the TGF-β activation reaction). […] Murphy-Ullrich et al. indicated an involvement of a thrombospondin 1-dependent adherent-type TGF-β activation reaction in the pathogenesis of lung or pancreatic diseases, but not in the pathogenesis of liver diseases.

With LSKL [LSKL peptide] the “inhibition of TGF-β activation” value was “could not reproduce”.

Reference: US7732401B2, “Inhibitor of TGF-β activation reaction” (Riken, priority 2007, dated 2010)
